Results from US12209074B2, “SHP2 phosphatase allosteric inhibitor” (BEIJING SHENOGEN PHARMA GROUP LTD., priority 2019, dated 2025).

The compounds below were run on Human non-small cell lung cancer NCI-H358 (assay: Cell proliferation assay (CellTiter-Glu) in NCI-H358). Settings: 5 days, NCI-H358 cells, cell viability by CellTiter-Glu, compound 0.3 nM-2 μM, medium and compound renewed after 3 days.
Format: cell-based
Experimental: Cell proliferation inhibition screening method was established by CellTier-Glu® test reagent from Promega.
Human non-small cell lung cancer NCI-H358 was cultured by RPMI-1640 (Gibco®) medium with 10% fetal bovine serum (Gibco®) at 37° C., 95% air and 5% CO2, in 25 cm^2 or 75 cm^2 plastic culture bottle ((Nunc®) and passaged 2-3 times a week.
The cells were seeded on the 96 well cell culture plate (Nunc®) at the density of 2*10^3/well, 90 μL/well, and cultured at 37° C., 95% air and 5% CO2. The compound to be tested was added 24 hours later: the compound was diluted 3 times with DMSO from the concentration of 2 mM compound (dissolved in DMSO). […] 10 μL of the compound diluted by culture medium was added into the culture plate seeded with cells. The final concentration of DMSO in cell culture medium was 0.1%, and the final concentration of test compound was 0.3 nM-2 μM. The cells were incubated at 37° C. for 3 days. The culture medium was substituted with 90 μL/well fresh complete medium. According to the above diluting method of compounds, the compound to be tested was added.
After 5 days, cell viability was tested by CellTiter-Glu (Promega) kit, and finally, the semi-inhibitory concentration of compounds on cell proliferation, i.e. IC50 was calculated by Prism program.

Row | SMILES | IC50 [nM]
1 | Cc1nc(N2CCC3(CC2)Cc2ccc(C(N)=O)cc2[C@H]3N)c(CO)nc1-c1cccc(Cl)c1Cl [Compound 5, (S)-1-amino-1′-(5-(2,3-dichlorophenyl)-3-(hydroxymethyl)-6-methylpyrazin-2-yl)-1,3-dihydrospiro[indene-2,4′-piperidine]-6-carboxamide] | 98
2 | Cc1nc(N2CCC3(CC2)Cc2ccccc2[C@H]3N)c(C#N)nc1-c1cccc(Cl)c1Cl [Compound 7, (S)-3-(1-amino-1,3-dihydrospiro[indene-2,4′-piperidin]-1′-yl)-6-(2,3-dichlorophenyl)-5-methylpyrazine-2-carbonitrile] | > 1000
3 | N[C@@H]1c2ccccc2CC12CCN(c1ncc(-c3cccc(Cl)c3Cl)nc1CO)CC2 [Compound 11, (S)-(3-(1-amino-1,3-dihydrospiro[indene-2,4′-piperidin]-1′-yl)-6-(2,3-dichlorophenyl)pyrazin-2-yl)methanol] | 405
4 | Cc1nc(N2CCC3(CC2)Cc2ccccc2[C@H]3N)c(CO)nc1-c1cccnc1C(F)(F)F [Compound 12, (S)-(3-(1-amino-1,3-dihydrospiro[indene-2,4′-piperidin]-1′-yl)-5-methyl-6-(2-(trifluoromethyl)pyridin-3-yl)pyrazin-2-yl)methanol] | > 1000
5 | COc1ccc2c(c1)[C@@H](N)C1(CCN(c3nc(C)c(-c4cccc(Cl)c4Cl)nc3CO)CC1)C2 [Compound 14] | 56
6 | Cc1nc(N2CCC3(CC2)Cc2ccccc2[C@H]3N)c(CO)nc1-c1ccccc1Br [Compound 16] | 261
7 | Cc1nc(N2CCC3(CC2)Cc2ccccc2[C@H]3N)c(CO)nc1-c1ccc(Cl)c(Cl)c1 [Compound 22] | 195
8 | Cc1nc(N2CCC3(CC2)Cc2ccccc2[C@@H]3N)c(CO)nc1-c1cccc(Cl)c1Cl [Compound 24] | > 1000
9 | Cc1cccc(-c2nc(CO)c(N3CCC4(CC3)Cc3ccccc3[C@H]4N)nc2C)c1Cl [Compound 25] | 37
10 | Cc1nc(N2CCC3(CC2)Cc2ccccc2[C@H]3N)c(CO)nc1-c1cc2ccccc2[nH]1 [Compound 26] | 449
11 | Cc1nc(N2CCC3(CC2)Cc2cccc(Br)c2[C@H]3N)c(CO)nc1-c1cccc(Cl)c1Cl [Compound 28] | > 1000
12 | Cc1nc(N2CCC3(CC2)Cc2ccc(N=S(C)(C)=O)cc2[C@H]3N)c(CO)nc1-c1cccc(Cl)c1Cl [Compound 29] | 199
13 | Cc1nc(N2CCC3(CC2)Cc2c(C#N)cccc2[C@H]3N)c(CO)nc1-c1cccc(Cl)c1Cl [Compound 30] | 207
14 | Cc1nc(N2CCC3(CC2)Cc2ccc(S(C)(=O)=O)cc2[C@H]3N)c(CO)nc1-c1cccc(Cl)c1Cl [Compound 31] | 249
15 | Cc1nc(N2CCC3(CC2)Cc2ccc(C(F)(F)F)cc2[C@H]3N)c(CO)nc1-c1cccc(Cl)c1Cl [Compound 34] | 90
16 | Cc1nc(N2CCC3(CC2)Cc2ccc(OC(F)(F)F)cc2[C@H]3N)c(CO)nc1-c1cccc(Cl)c1Cl [Compound 36] | 31
17 | Cc1nc(N2CCC3(CC2)Cc2ccncc2[C@H]3N)c(CO)nc1-c1cccc(Cl)c1Cl [Compound 37] | 75
18 | Cc1nc(N2CCC3(CC2)Cc2cnccc2[C@H]3N)c(CO)nc1-c1cccc(Cl)c1Cl [Compound 38] | > 1000
19 | Cc1nc(N2CCC3(CC2)Cc2ccccc2[C@H]3N)c(CO)nc1-c1ccc(S(C)(=O)=O)cc1Cl [Compound 42] | 732

Next, values leading:

Row | IC50 [nM] | SMILES
20 | 273 | Cc1nc(N2CCC3(CC2)Cc2ccc(NS(C)(=O)=O)cc2[C@H]3N)c(CO)nc1-c1cccc(Cl)c1Cl [Compound 3, (S)—N-(1-amino-1′-(5-(2,3-dichlorophenyl)-3-(hydroxymethyl)-6-methylpyrazin-2-yl)-1,3-dihydrospiro[indene-2,4′-piperidin]-6-yl) methanesulfonamide]
21 | 817 | Cc1nc(N2CCC3(CC2)Cc2ccc(C(C)(C)O)cc2[C@H]3N)c(CO)nc1-c1cccc(Cl)c1Cl [Compound 4, (S)-2-(1-amino-1′-(5-(2,3-dichlorophenyl)-3-(hydroxymethyl)-6-methylpyrazin-2-yl)-1,3-dihydrospiro[indene-2,4′-piperidin]-6-yl)propan-2-01]
22 | > 1000 | Cc1nc(N2CCC3(CC2)Cc2ccccc2[C@H]3N)c(C(N)=O)nc1-c1cccc(Cl)c1Cl [Compound 6, (S)-3-(1-amino-1,3-dihydrospiro[indene-2,4′-piperidin]-1′-yl)-6-(2,3-dichlorophenyl)-5-methylpyrazine-2-carboxamide]
23 | > 1000 | Cc1nc(N2CCC3(CC2)Cc2cccc(C#N)c2[C@H]3N)c(CO)nc1-c1cccc(Cl)c1Cl [Compound 8, (S)-1-amino-1′-(5-(2,3-dichlorophenyl)-3-(hydroxymethyl)-6-methylpyrazin-2-yl)-1,3-dihydrospiro[indene-2,4′-piperidine]-7-carbonitrile]
24 | > 1000 | Cc1nc(N2CCC3(CC2)Cc2cc(NS(C)(=O)=O)ccc2[C@H]3N)c(CO)nc1-c1cccc(Cl)c1Cl [Compound 9, (S)—N-(1-amino-1′-(5-(2,3-dichlorophenyl)-3-(hydroxymethyl)-6-methylpyrazin-2-yl)-1,3-dihydrospiro[indene-2,4′-piperidin]-5-yl)methanesulfonamide]
25 | > 1000 | Cc1nc(N2CCC3(CC2)Cc2ccccc2[C@H]3N)c(CO)nc1-c1ccnc(N)c1Cl [Compound 10, (S)-(3-(1-amino-1,3-dihydrospiro[indene-2,4′-piperidin]-1′-yl)-6-(2-amino-3-chloropyridin-4-yl)-5-methylpyrazin-2-yl)methanol]
26 | 590 | Cc1cccc(-c2nc(CO)c(N3CCC4(CC3)Cc3ccccc3[C@H]4N)nc2C)c1C [Compound 15]
27 | 464 | Cc1nc(N2CCC3(CC2)Cc2ccccc2[C@H]3N)c(CO)nc1-c1ccc2[nH]ncc2c1 [Compound 17]
28 | 630 | Cc1nc(N2CCC3(CC2)Cc2ccccc2[C@H]3N)c(CO)nc1-c1ccc2c(cnn2C)c1 [Compound 18]
29 | 29 | Cc1nc(N2CCC3(CC2)Cc2ccccc2[C@H]3N)c(CO)nc1-c1ccnc(Cl)c1Cl [Compound 19]
30 | 48 | Cc1ccc2c(c1)[C@@H](N)C1(CCN(c3nc(C)c(-c4cccc(Cl)c4Cl)nc3CO)CC1)C2 [Compound 20]
31 | 479 | Cc1nc(N2CCC3(CC2)Cc2ccccc2[C@H]3N)c(CO)nc1-c1ccccc1Cl [Compound 23]
32 | > 1000 | Cc1nc(N2CCC3(CC2)Cc2cc(C(N)=O)ccc2[C@H]3N)c(CO)nc1-c1cccc(Cl)c1Cl [Compound 27]
33 | 29 | Cc1nc(N2CCC3(CC2)Cc2ccc(Br)cc2[C@H]3N)c(CO)nc1-c1cccc(Cl)c1Cl [Compound 32]
34 | 17 | Cc1nc(N2CCC3(CC2)Cc2ccc(Cl)cc2[C@H]3N)c(CO)nc1-c1cccc(Cl)c1Cl [Compound 33]
35 | 101 | Cc1nc(N2CCC3(CC2)Cc2cccnc2[C@H]3N)c(CO)nc1-c1cccc(Cl)c1Cl [Compound 35]
36 | 11 | Cc1cnc2c(c1)[C@@H](N)C1(CCN(c3nc(C)c(-c4cccc(Cl)c4Cl)nc3CO)CC1)C2 [Compound 39]
37 | 30 | Cc1nc(N2CCC3(CC2)Cc2ncccc2[C@H]3N)c(CO)nc1-c1ccnc(Cl)c1Cl [Compound 40]
38 | 97 | COc1ccc(-c2nc(CO)c(N3CCC4(CC3)Cc3ccccc3[C@H]4N)nc2C)c(Cl)c1 [Compound 41]
39 | 225 | Cc1nc(N2CCC3(CC2)Cc2ccccc2[C@H]3N)c(CO)nc1-c1cncc(Cl)c1Cl [Compound 43]
